{"source": "patent US20200236933A1", "about": "“USE OF A NON-IONIC SURFACTANT WHICH IS A POLYOL DERIVATIVE AS A PLANT GROWTH STIMULATING AGENT OR AS AN ADJUVANT” (priority 2017, published 2020)", "key": {"maize seeds [1]": {"test_system": "maize seeds", "experiment": "Germination of maize seeds after immersion treatment (Example 2)", "format": "in vivo", "conditions": "maize seeds immersed 1 h in 0.75% solution", "procedure": "(§1) The seeds are next dried in a heating tunnel at 45° C. for one hour. Four batch repetitions of 16 seeds are deposited on Petri dishes containing a medium composed of 2% Agar Agar and 98% water.\nThe Petri dishes are kept at ambient temperature and in darkness. Each day the number of seeds that have germinated (having a radicle) is counted."}, "[2]": {"test_system": "flat-leaf parsley variety NOVAS", "experiment": "Root growth, assays in fields", "format": "in vivo, Petroselinum crispum var. neapolitanum", "conditions": "seeds immersed 1 h in 2.5% solution; 12 weeks after sowing", "procedure": "In order to test the effect of the invention in conditions of crops in fields, the flat-leaf parsley variety NOVAS (Petroselinum crispum var. neapolitanum) is used.\n(§2) The seeds are next dried in a heating tunnel at 45° C. for 1 h.\nThe seeds are mechanically sown (seeder) on strips of four rows each one beside the other to limit as much as possible the variations in soil quality, insulation and temperature. 12 weeks after sowing, 25 parsley plants were taken in order to measure several parameters of the roots: their weight, their length, and their diameter."}, "strawberry leaves": {"test_system": "strawberry leaves", "experiment": "Spreading of an aqueous solution on a leaf", "format": "in vivo", "conditions": "0.75% solution sprayed on strawberry leaves", "quoted_text": "Strawberry plants in pots are grown in a climate-controlled chamber in the following conditions: 23° C. and a photoperiod of 16 h/8 h."}, "parsley leaves": {"test_system": "parsley leaves", "experiment": "Calcium content of the leaves", "format": "in vivo", "conditions": "3% solution, watering every three days and spraying twice daily, seven days", "source_text": "After seven days of treatment, the leaves are harvested and analyzed to determine their calcium content."}, "parsley plants": {"test_system": "parsley plants", "experiment": "Protein content of parsley", "format": "in vivo", "conditions": "40 ml of 0.75% solution every three days, 23 days", "procedure": "Each batch consists of four pots. After 23 days of treatment the leaves are cut and an analysis of the amount of protein is carried out."}, "maize seeds [3]": {"test_system": "maize seeds", "experiment": "Root growth (rootlets) of maize seeds", "format": "in vivo", "conditions": "maize seeds immersed 1 h in 2.5% solution; after two days", "procedure": "as §1\nThe Petri dishes are kept at ambient temperature and in darkness."}, "[4]": {"test_system": "flat-leaf parsley variety NOVAS", "experiment": "Vertical anchoring of the root, assays in fields", "format": "in vivo", "conditions": "seeds immersed 1 h in 2.5% solution; 12 weeks after sowing", "procedure": "In order to test the effect of the invention in conditions of crops in the field, the flat-leaf parsley variety NOVAS is used.\nas §2\nThe seeds are mechanically sown (seeder) on strips of four rows each one beside the other to limit as much as possible the variations in soil quality, insulation and temperature.\n12 weeks after sowing, 25 parsley plants were harvested in order to observe root morphology."}, "rape leaf": {"test_system": "rape leaf", "experiment": "Penetration of a colored aqueous solution through the cuticle", "conditions": "2.5% solution, 2 h on rape leaf then wiped", "procedure": "Rape, a plant known for having a thick cuticle, was chosen in order to test the effectiveness of the invention as a penetrating agent.\nA colorant in aqueous solution was deposited on a rape leaf, then left for 2 h and then wiped."}, "[5]": {"test_system": "detached leaves of Buddleja davidii", "experiment": "Stickiness of a solution on the leaf (washing off)", "conditions": "2.5% with 3% titanium dioxide; washed with 14 g water", "source_text": "A solution is applied by spraying on detached leaves of Buddleja davidii disposed flat on a support.\nThe leaves were next left at ambient temperature until the sprayed solutions had completely evaporated.\n14 grams of water are next sprayed onto the leaves held vertical to simulate rain. The titanium residues on the leaf are next observed."}, "[6]": {"experiment": "Homogenization of the mixture", "format": "physicochemical", "conditions": "1% with 2% glycerin colored blue", "source_text": "The mixtures were next stirred in equivalent manner. Photographs are taken after stirring."}, "[7]": {"experiment": "pH modification of the mixture", "format": "physicochemical", "conditions": "increasing concentration of the 2.5% sucrose stearate solution added to a solution at pH 9.4"}, "Aspergillus niger": {"test_system": "Aspergillus niger", "experiment": "Fungicide effect by antibiogram type method", "format": "cell-based", "source_text": "In order to evaluate any impact of the sugar esters used according to the invention on microorganisms, the fungicide effect was searched for by an antibiogram type method. The method consists of: • spreading a solution contaminated with the mold Aspergillus niger on the surface of a Petri dish containing glucose gel growth medium with chloramphenicol. • arrange 4 sterile antibiogram disks of 6 mm diameter per Petri dish. • inoculate with 3 drops (0.071 g) of solution to test or control solution per disk. The dishes are next placed in the incubator at 25° C. for 5 days. Measurement of the inhibitory diameter is carried out every day."}, "Septoria leaf spot": {"test_system": "Septoria leaf spot", "experiment": "Reduction of phytosanitary products on wheat", "format": "in vivo, soft winter wheat (GARCIA variety)", "conditions": "25% of recommended dose (0.15 L/ha Priaxor + 0.15 L/ha Reimer Pro) plus 3 L/ha sucrose stearate; start of coming into ear", "procedure": "Assays in a climate-controlled chamber were carried out on soft winter wheat (GARCIA variety, Arvalis). The wheat was sowed in containers of 1 meter by 1 meter. […] Priaxor® comprises two active ingredients: fluxapyroxad (belonging to the SDHI family) and pyraclostrobin (belonging to the strobilurin family) and Reimer® Pro comprises the active ingredient metconazole (belonging to the triazole family).\nThe containers were then taken out of the climate-controlled chamber and disposed near a field having more than 50% of wheat plants diseased with Septoria leaf spot. After 1 day, the containers were placed back in the climate-controlled chamber under controlled conditions."}, "Helminthosphaeria": {"test_system": "Helminthosphaeria", "experiment": "Reduction of phytosanitary products on maize", "format": "in vivo, maize (P7043, Pioneer)", "conditions": "25% of recommended dose (0.25 L/ha Amistar + 0.6 L/ha Cicero) plus 3 L/ha sucrose stearate; 12-14 leaf stage", "procedure": "Assays in a climate-controlled chamber were carried out on maize ([…], Pioneer). The maize was sowed in containers of 1 meter by 1 meter. […] […]® comprises the active ingredient: azoxystrobin (belonging to the strobilurin family), and Cicero® comprises two active ingredients: chlorothalonil (belonging to the chloronitrile family), and flutriafol (belonging to the triazole family). […] The containers were then taken out of the climate-controlled chamber and disposed near a field having more than 50% of maize plants diseased with Helminthosphaeria. After 1 day, the containers were placed back in the climate-controlled chamber under controlled conditions."}}}
{"substance": "sucrose stearate", "values": [{"measurement": "increase of the germination kinetics on average", "setting": "maize seeds [1]", "value": 30, "unit": "%"}, {"measurement": "germinated seeds, treated batch compared with the control batch", "setting": "maize seeds [1]; after 2 days", "value": 10, "unit": "times"}, {"measurement": "diameter of the taproot, on average greater than the control", "setting": "[2]", "value": 30, "unit": "%"}, {"measurement": "roots with a length of more than 10 cm", "setting": "[2]", "value": 74, "unit": "%"}, {"measurement": "weight of the taproot, on average greater than the control", "setting": "[2]", "value": 70, "unit": "%"}, {"measurement": "distribution of the solution on the leaf (spreading of the drops)", "setting": "strawberry leaves", "value": "distributed evenly over the leaf"}, {"measurement": "passage of the solution onto the lower face compared with the control batch", "setting": "strawberry leaves", "value": "much greater passage of the solution onto the lower face"}, {"measurement": "reduction in the level of calcium in the leaves", "setting": "parsley leaves", "value": 17, "unit": "%"}, {"measurement": "increase in the protein amount compared with the control batch", "setting": "parsley plants", "value": 56, "unit": "%"}, {"measurement": "rootlets on the germinated seeds", "setting": "maize seeds [3]", "value": "rootlet presence is observed"}, {"measurement": "root morphology", "setting": "[4]", "value": "root elongation, coupled with vertical anchorage of the roots"}, {"measurement": "penetration of the colorant through the cuticle", "setting": "rape leaf", "value": "enables the colorant to color the leaf and thus to penetrate through the cuticle"}, {"measurement": "titanium dioxide residue on the leaf after washing", "setting": "[5]", "value": "still clearly visible"}, {"measurement": "homogenization of the mixture", "setting": "[6]", "value": "better homogenization of the mixture"}, {"measurement": "pH at which the mixture stabilizes", "setting": "[7]", "value": 5.25}, {"measurement": "Inhibitory diameter", "setting": "Aspergillus niger; 0.1% solution, D1", "value": 0, "unit": "mm"}, {"measurement": "Inhibitory diameter", "setting": "Aspergillus niger; 0.1% solution, D2", "value": 0, "unit": "mm"}, {"measurement": "Inhibitory diameter", "setting": "Aspergillus niger; 0.1% solution, D3", "value": 0, "unit": "mm"}, {"measurement": "Inhibitory diameter", "setting": "Aspergillus niger; 0.1% solution, D4", "value": 0, "unit": "mm"}, {"measurement": "Inhibitory diameter", "setting": "Aspergillus niger; 0.1% solution, D5", "value": 0, "unit": "mm"}, {"measurement": "Inhibitory diameter", "setting": "Aspergillus niger; 1% solution, D1", "value": 0, "unit": "mm"}, {"measurement": "Inhibitory diameter", "setting": "Aspergillus niger; 1% solution, D2", "value": 0, "unit": "mm"}, {"measurement": "Inhibitory diameter", "setting": "Aspergillus niger; 1% solution, D3", "value": 0, "unit": "mm"}, {"measurement": "Inhibitory diameter", "setting": "Aspergillus niger; 1% solution, D4", "value": 0, "unit": "mm"}, {"measurement": "Inhibitory diameter", "setting": "Aspergillus niger; 1% solution, D5", "value": 0, "unit": "mm"}, {"measurement": "Inhibitory diameter", "setting": "Aspergillus niger; 3% solution, D1", "value": 0, "unit": "mm"}, {"measurement": "Inhibitory diameter", "setting": "Aspergillus niger; 3% solution, D2", "value": 0, "unit": "mm"}, {"measurement": "Inhibitory diameter", "setting": "Aspergillus niger; 3% solution, D3", "value": 0, "unit": "mm"}, {"measurement": "Inhibitory diameter", "setting": "Aspergillus niger; 3% solution, D4", "value": 0, "unit": "mm"}, {"measurement": "Inhibitory diameter", "setting": "Aspergillus niger; 3% solution, D5", "value": 0, "unit": "mm"}, {"measurement": "Inhibitory diameter", "setting": "Aspergillus niger; 10% solution, D1", "value": 0, "unit": "mm"}, {"measurement": "Inhibitory diameter", "setting": "Aspergillus niger; 10% solution, D2", "value": 0, "unit": "mm"}, {"measurement": "Inhibitory diameter", "setting": "Aspergillus niger; 10% solution, D3", "value": 0, "unit": "mm"}, {"measurement": "Inhibitory diameter", "setting": "Aspergillus niger; 10% solution, D4", "value": 0, "unit": "mm"}, {"measurement": "Inhibitory diameter", "setting": "Aspergillus niger; 10% solution, D5", "value": 0, "unit": "mm"}, {"measurement": "fungicide effect", "setting": "Aspergillus niger; whatever the concentrations tested (0.1-10%)", "value": "no fungicide effect"}, {"measurement": "plants diseased with Septoria leaf spot", "setting": "Septoria leaf spot", "value": 20, "unit": "%"}, {"measurement": "plants presenting Helminthosphaeria spots", "setting": "Helminthosphaeria", "value": "less than 10%"}]}
